The target of assay [1] is T1, Nav 1.7 (Homo sapiens, UniProt Q15858).
T1 construct: expressed in transfected cells
Nature of the assay: Whole-cell voltage clamp electrophysiology, manual patch clamp (marker b in Table of Examples). The format is cell-based. Particulars: for IC50: read-out: Nav 1.7 activity. An excerpt:
a.IonWork Quattro data, b=Manual patch clamp data, c=Automated patch clamp data M=Method
Whole-Cell Voltage Clamp Electrophysiology Assay
Patch-clamp electrophysiology is considered the gold standard technique for investigation of ion channel function and pharmacology. Using this method, sodium channel currents can be measured in cells, which stably (or transiently) express the sodium channel subtype of interest. Application of compounds during such experiments provides a functional measure of the activity and potency of compounds affecting the ion channel of interest.
Electrophysiological studies can also be performed using the whole cell configuration of the standard manual patch clamp technique as described in the literature (e.g. Pflugers Arch., 1981, 391(2), 85-100). In this assay, cells that express the voltage-gated sodium channel protein of interest are exposed to the drugs by conventional microperfusion systems, or by a home-built perfusion system. A suitable voltage stimulus protocol is used to activate the voltage-gated sodium channels.
A suitable voltage stimulus protocol is used to activate voltage-gated sodium channel proteins of interest. A typical stimulus protocol may consist of sweeps of sequential voltage pulses starting from a holding potential (i.e. −65 mV), to a more positive and depolarising test pulse potential (i.e. −10 mV) and finally to a more negative and hyperpolarising potential (i.e. −100 mV). According to the biophysics of the voltage-gated ion channel of interest and interest in channel configuration the voltages and durations of the pulses as well as the overall frequency of sweeps applied might vary. Accordingly, a stimulus protocol was designed to assess compounds due to their potential to block NaV1.7 channels primarily in inactivated state. Selectivity over other voltage-gated sodium channel members was assessed by protocols that reflect the native function of the channels (i.e. heart rate or firing of neurons).
Electrophysiological studies can also be performed using the whole cell configuration of the standard manual patch clamp technique as described in the literature (e.g. Pflugers Arch., 1981, 391(2), 85-100). In this assay, cells that express the human voltage-gated sodium channel protein of interest are exposed to the drugs by conventional microperfusion systems, or by a home-built perfusion system. A suitable voltage stimulus protocol is used to activate the voltage-gated sodium channels. A suitable voltage stimulus protocol may consist of sequential voltage pulses from a holding potential, each first hyperpolarizing the cell, then depolarizing the channels for a brief period. A particularly suitable holding potential may be a voltage allowing a fraction of channels to remain in an inactivated state, like −60 mV. A suitable hyperpolarizing voltage and duration may be −120 mV for 100 ms, and depolarization voltage and duration may be −20 mV for 25 ms, and a suitable frequency of pulses may be 0.1 Hz, but may also have other parameters. Accordingly, a stimulus protocol was designed to assess compounds due to their potential to block NaV1.7 channels primarily in inactivated state. Selectivity over other voltage-gated sodium channel members was assessed by protocols that reflect the native function of the channels (i.e. heart rate or firing of neurons).

The target in assay [2] is T1, Nav 1.7. As to the kind of experiment: Whole-cell voltage clamp electrophysiology, automated patch clamp (marker c in Table of Examples). The assay is classed as cell-based. Particulars: read-out: Nav 1.7 activity. In outline: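 A voltage protocol weighted toward inactivated-state block was used to test compounds on stably expressing cells, with pulses from −65 mV holding to −10 mV test and −100 mV. Currents came from whole-cell automated patch-clamp recordings, either IonWorks Quattro or other automated instruments, usually in perforated-patch mode.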

Where [3] appears, read: marker b: Manual patch clamp data.
Setting [4] is: marker b = Manual patch clamp data.
Setting [5] is: marker c = Automated patch clamp data.
Where [6] appears, read: marker c: Automated patch clamp data.

T1 sequence (Q15858 whole entry): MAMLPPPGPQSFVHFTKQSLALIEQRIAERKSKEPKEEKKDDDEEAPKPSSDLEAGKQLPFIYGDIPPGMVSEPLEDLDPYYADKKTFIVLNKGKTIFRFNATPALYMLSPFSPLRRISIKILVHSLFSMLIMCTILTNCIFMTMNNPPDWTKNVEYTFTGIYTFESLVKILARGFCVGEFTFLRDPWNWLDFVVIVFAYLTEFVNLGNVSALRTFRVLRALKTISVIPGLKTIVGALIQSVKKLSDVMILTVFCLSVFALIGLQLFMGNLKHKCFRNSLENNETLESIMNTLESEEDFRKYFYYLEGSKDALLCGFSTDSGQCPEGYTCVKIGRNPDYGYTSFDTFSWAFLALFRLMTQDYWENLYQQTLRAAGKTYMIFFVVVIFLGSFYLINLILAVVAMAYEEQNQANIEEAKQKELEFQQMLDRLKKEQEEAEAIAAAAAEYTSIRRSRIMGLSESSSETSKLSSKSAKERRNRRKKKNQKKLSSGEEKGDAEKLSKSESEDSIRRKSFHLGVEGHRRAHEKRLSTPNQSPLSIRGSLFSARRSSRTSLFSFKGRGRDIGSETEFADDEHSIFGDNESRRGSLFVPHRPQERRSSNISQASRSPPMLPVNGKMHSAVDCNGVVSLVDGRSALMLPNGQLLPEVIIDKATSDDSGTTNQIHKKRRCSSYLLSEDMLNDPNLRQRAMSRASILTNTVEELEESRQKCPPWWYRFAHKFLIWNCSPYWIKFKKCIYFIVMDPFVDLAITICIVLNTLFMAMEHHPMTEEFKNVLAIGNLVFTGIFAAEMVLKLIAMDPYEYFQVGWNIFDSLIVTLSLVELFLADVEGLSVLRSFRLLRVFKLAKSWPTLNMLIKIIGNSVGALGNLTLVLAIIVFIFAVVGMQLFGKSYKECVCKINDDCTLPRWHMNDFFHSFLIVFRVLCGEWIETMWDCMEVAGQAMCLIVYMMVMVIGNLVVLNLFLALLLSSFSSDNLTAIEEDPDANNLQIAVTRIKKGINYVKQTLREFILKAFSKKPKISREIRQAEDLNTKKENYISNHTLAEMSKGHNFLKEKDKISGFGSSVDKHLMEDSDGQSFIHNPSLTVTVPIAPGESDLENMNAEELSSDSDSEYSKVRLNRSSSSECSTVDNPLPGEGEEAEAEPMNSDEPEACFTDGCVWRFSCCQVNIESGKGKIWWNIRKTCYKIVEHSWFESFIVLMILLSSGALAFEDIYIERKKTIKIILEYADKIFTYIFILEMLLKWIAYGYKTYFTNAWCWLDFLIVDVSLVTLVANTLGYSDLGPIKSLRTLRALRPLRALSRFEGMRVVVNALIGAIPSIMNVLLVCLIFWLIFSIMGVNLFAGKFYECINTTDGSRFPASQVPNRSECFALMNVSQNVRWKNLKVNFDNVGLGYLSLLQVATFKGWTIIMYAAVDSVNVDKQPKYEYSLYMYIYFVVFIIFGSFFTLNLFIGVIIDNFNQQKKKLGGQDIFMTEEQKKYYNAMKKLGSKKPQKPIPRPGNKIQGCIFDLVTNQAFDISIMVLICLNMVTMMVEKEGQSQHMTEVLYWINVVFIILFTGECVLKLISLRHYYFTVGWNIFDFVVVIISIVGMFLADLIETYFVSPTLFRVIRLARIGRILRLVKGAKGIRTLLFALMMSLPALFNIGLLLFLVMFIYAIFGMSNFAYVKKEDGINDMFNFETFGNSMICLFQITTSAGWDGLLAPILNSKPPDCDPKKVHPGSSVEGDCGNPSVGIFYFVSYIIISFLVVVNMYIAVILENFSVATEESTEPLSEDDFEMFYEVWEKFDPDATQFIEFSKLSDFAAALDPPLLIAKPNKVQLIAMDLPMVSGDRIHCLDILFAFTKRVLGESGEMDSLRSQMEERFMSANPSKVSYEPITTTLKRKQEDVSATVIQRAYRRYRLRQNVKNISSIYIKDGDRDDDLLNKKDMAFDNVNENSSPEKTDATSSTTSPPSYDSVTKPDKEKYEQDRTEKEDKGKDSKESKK

For the compound `COc1cccc(N(C)c2nc(N)nc(-c3noc(-c4ccco4)n3)n2)c1` [Example 5, 6-(5-Furan-2-yl-[1,2,4]oxadiazol-3-yl)-N-methyl-N-(3-methoxyphenyl)-[1,3,5]triazine-2,4-diamine], the IC50 on Nav 1.7 [1] (setting [3]) was 791 nM.
On the same count and under the same terms, to `Cc1ccc(N(C)c2nc(N)nc(-c3noc(-c4ccco4)n3)n2)cc1` [Example 4, 6-(5-Furan-2-yl-[1,2,4]oxadiazol-3-yl)-N-methyl-N-(4-methylphenyl)-[1,3,5]triazine-2,4-diamine] belongs 661 nM; to `Nc1nc(Nc2cc(Cl)ccc2F)nc(-c2noc(-c3ccco3)n2)n1` [Example 108, N-(5-Chloro-2-fluoro-phenyl)-6-(5-furan-2-yl-[1,2,4]oxadiazol-3-yl)-[1,3,5]triazine-2,4-diamine], 235 nM.
Take `Nc1nc(Nc2ccccc2)nc(-c2noc(-c3ccc(COCC(F)(F)F)nc3)n2)n1` [Example 303, 2-N-phenyl-6-(5-{6-[(2,2,2-trifluoroethoxy)methyl]pyridin-3-yl}-1,2,4-oxadiazol-3-yl)-1,3,5-triazine-2,4-diamine]: the IC50 at Nav 1.7 [1] (setting [4]) turned out to be 24 nM.
For the compound `CN(c1ccccc1)c1nc(N)nc(-c2noc(-c3ccoc3)n2)n1` [Example 37, 6-(5-Furan-3-yl-[1,2,4]oxadiazol-3-yl)-N-methyl-N-phenyl-[1,3,5]triazine-2,4-diamine], the “Nav 1.7 activity, % at 10 μM” value at Nav 1.7 [1] (10 μM, marker b: Manual patch clamp data) was 50% (10 μM)^b.
Consider `CN(c1ccccc1)c1nc(N)nc(-c2noc(N3CC(Oc4ccccc4)C3)n2)n1` [Example 489, 2-N-methyl-6-[5-(3-phenoxyazetidin-1-yl)-1,2,4-oxadiazol-3-yl]-2-N-phenyl-1,3,5-triazine-2,4-diamine], for which, on Nav 1.7 [1] (setting [4]), the IC50 was determined as 127 nM.
Same read-out and setting: the figure for `CN(c1ccccc1)c1nc(N)nc(-c2noc(-c3ccn(CC(F)(F)F)n3)n2)n1` [Example 256, 2-N-Methyl-2-N-phenyl-6-{5-[1-(2,2,2-trifluoroethyl)-1H-pyrazol-3-yl]-1,2,4-oxadiazol-3-yl}-1,3,5-triazine-2,4-diamine] is 815 nM.
Same read-out and setting: to `COc1cnc(-c2nc(-c3nc(N)nc(N(C)c4ccccc4)n3)no2)c(OC)c1` [Example 282, 6-[5-(3,5-Dimethoxypyridin-2-yl)-1,2,4-oxadiazol-3-yl]-2-N-methyl-2-N-phenyl-1,3,5-triazine-2,4-diamine] belongs 308 nM.
Take `COCCN(c1ccccc1)c1nc(N)nc(-c2noc(-c3ccco3)n2)n1` [Example 119, 6-(5-Furan-2-yl-[1,2,4]oxadiazol-3-yl)-N-(2-methoxy-ethyl)-N-phenyl-[1,3,5]triazine-2,4-diamine]: the IC50 on Nav 1.7 [1] (setting [3]) stood at 400 nM.
As to `Nc1nc(Nc2ccccc2)nc(-c2noc(-c3ccco3)n2)n1` [Example 2, 6-(5-Furan-2-yl-[1,2,4]oxadiazol-3-yl)-N-phenyl-[1,3,5]triazine-2,4-diamine], the IC50 at Nav 1.7 [1] (setting [3]) was 91 nM.
On the same count and under the same terms, the figure for `COCCN(c1ccccc1)c1nc(N)nc(-c2noc(-c3ccc(OCC(F)(F)F)nc3)n2)n1` [Example 156, 2-N-(2-Methoxyethyl)-2-N-phenyl-6-{5-[6-(2,2,2-trifluoroethoxy)pyridin-3-yl]-1,2,4-oxadiazol-3-yl}-1,3,5-triazine-2,4-diamine] is 65 nM; for `CN(c1ccccc1)c1nc(N)nc(-c2noc(-c3ccc(OC4CCCC4)nc3)n2)n1` [Example 13, 6-[5-(6-Cyclopentoxy-pyridin-3-yl)-[1,2,4]oxadiazol-3-yl]-N-methyl-N-phenyl-[1,3,5]triazine-2,4-diamine] it is 4 nM.
As to `COC1CCN(c2nc(-c3nc(N)nc(Nc4ccccc4)n3)no2)CC1` [Example 238, 6-[5-(4-methoxypiperidin-1-yl)-1,2,4-oxadiazol-3-yl]-2-N-phenyl-1,3,5-triazine-2,4-diamine], the IC50 on Nav 1.7 [1] (setting [4]) was 761 nM.
Same read-out and setting: the figure for `CN(c1ccccc1)c1nc(N)nc(-c2noc(-c3ccnc(OCC(F)(F)F)c3)n2)n1` [Example 472, 2-N-methyl-2-N-phenyl-6-{5-[2-(2,2,2-trifluoroethoxy)pyridin-4-yl]-1,2,4-oxadiazol-3-yl}-1,3,5-triazine-2,4-diamine] is 900 nM.
For `CN(c1nc(N)nc(-c2noc(-c3ccco3)n2)n1)c1cc(F)ccc1F` [Example 104, N-(2,5-Difluoro-phenyl)-6-(5-furan-2-yl-[1,2,4]oxadiazol-3-yl)-N-methyl-[1,3,5]triazine-2,4-diamine], the IC50 at Nav 1.7 [1] (setting [3]) is 93 nM.
Still for that read-out and setting: the figure for `CN(c1ccccc1)c1nc(N)nc(-c2noc(-c3cncs3)n2)n1` [Example 52, N-Methyl-N-phenyl-6-(5-thiazol-5-yl-[1,2,4]oxadiazol-3-yl)-[1,3,5]triazine-2,4-diamine] is 909 nM.
Consider `CN(c1ccccc1)c1nc(N)nc(-c2noc(-c3ncccc3F)n2)n1` [Example 482, 6-[5-(3-Fluoropyridin-2-yl)-[1,2,4]oxadiazol-3-yl]-N-methyl-N-phenyl-[1,3,5]triazine-2,4-diamine], for which the IC50 on Nav 1.7 [2] (setting [5]) came to 647 nM.
As for `CN(c1ccccc1)c1nc(N)nc(-c2noc(C3CCN(S(C)(=O)=O)CC3)n2)n1` [Example 160, 6-[5-(1-methanesulfonylpiperidin-4-yl)-1,2,4-oxadiazol-3-yl]-2-N-methyl-2-N-phenyl-1,3,5-triazine-2,4-diamine], the IC50 at Nav 1.7 [2] (setting [6]) came to 2730 nM.
Still for that read-out and setting: the figure for `CN(c1ccccc1)c1nc(N)nc(-c2noc(N3CCC(CSc4ccccc4)CC3)n2)n1` [Example 176, 2-N-methyl-2-N-phenyl-6-(5-{4-[(phenylsulfanyl)methyl]piperidin-1-yl}-1,2,4-oxadiazol-3-yl)-1,3,5-triazine-2,4-diamine] is 223 nM; for `Cc1cc(-c2nc(-c3nc(N)nc(N(C)c4ccccc4)n3)no2)n[nH]1` [Example 58, N-Methyl-6-[5-(5-methyl-1H-pyrazol-3-yl)-[1,2,4]oxadiazol-3-yl]-N-phenyl-[1,3,5]triazine-2,4-diamine] it is 855 nM.
Turning to `CN(c1ccccc1)c1nc(N)nc(-c2noc(-c3ccc(C[S+]([O-])CC(F)(F)F)nc3)n2)n1` (stereo not drawn) [Example 317, 2-N-Methyl-2-N-phenyl-6-[5-(6-{[(2,2,2-trifluoroethane)sulfinyl]methyl}pyridin-3-yl)-1,2,4-oxadiazol-3-yl]-1,3,5-triazine-2,4-diamine], at Nav 1.7 [2] (setting [5]), the IC50 was found to be 2770 nM.
As to `CN(c1ccccc1)c1nc(N)nc(-c2noc(-c3ccc(OC4CCOCC4)nc3)n2)n1` [Example 361, 2-N-methyl-6-{5-[6-(oxan-4-yloxy)pyridin-3-yl]-1,2,4-oxadiazol-3-yl}-2-N-phenyl-1,3,5-triazine-2,4-diamine], the IC50 on Nav 1.7 [2] (setting [5]) was found to be 273 nM.
With `CCN(c1ccccc1)c1nc(N)nc(-c2noc(-c3ccc(C)o3)n2)n1` [Example 97, N-Ethyl-6-[5-(5-methyl-furan-2-yl)-[1,2,4]oxadiazol-3-yl]-N-phenyl-[1,3,5]triazine-2,4-diamine], the IC50 on Nav 1.7 [2] (setting [6]) is 1300 nM.
For the compound `Nc1nc(Nc2cccc(Cl)c2F)nc(-c2noc(-c3ccccn3)n2)n1` [Example 264, 2-N-(3-Chloro-2-fluorophenyl)-6-[5-(pyridin-2-yl)-1,2,4-oxadiazol-3-yl]-1,3,5-triazine-2,4-diamine], on Nav 1.7 [2] (setting [5]), the IC50 was 774 nM.
Same read-out and setting: the figure for `CN(c1ccccc1)c1nc(N)nc(-c2noc(N3C[C@@H]4[C@@H](COC5CCCC5)[C@@H]4C3)n2)n1` [Example 399, 6-{5-[6-[(cyclopentyloxy)methyl]-3-azabicyclo[3.1.0]hexan-3-yl]-1,2,4-oxadiazol-3-yl}-2-N-methyl-2-N-phenyl-1,3,5-triazine-2,4-diamine] is 620 nM.
Consider `CN(c1ccccc1)c1nc(N)nc(-c2noc(N3CCC(COc4ccccc4)CC3)n2)n1` [Example 166, 2-N-methyl-6-{5-[4-(phenoxymethyl)piperidin-1-yl]-1,2,4-oxadiazol-3-yl}-2-N-phenyl-1,3,5-triazine-2,4-diamine], for which the IC50 at Nav 1.7 [2] (setting [6]) is 60 nM.
On the same count and under the same terms, the figure for `CN(c1cccc(Cl)c1)c1nc(N)nc(-c2noc(-c3ccccc3Cl)n2)n1` [Example 84, N-(3-Chloro-phenyl)-6-[5-(2-chloro-phenyl)-[1,2,4]oxadiazol-3-yl]-N-methyl-[1,3,5]triazine-2,4-diamine] is 170 nM.

Values taken from patent US8895733B2 (Novartis AG, priority 2010, dated 2014).
